Laboratory results published in patent publication US20260207614A1, “IRAK4 DEGRADERS AND USES THEREOF” (Kymera Therapeutics, Inc., priority 2022, published 2026).

What was measured:
[1] = Diastereomer interconversion; format: physicochemical; settings: in vitro and in vivo
Source text: (S,R,R)-Compound A and (R,R,R)-Compound A, which are designated as Compound B and Compound C, respectively. In some embodiments, Compound A is Compound B. In some embodiments, Compound A is Compound C. In some embodiments, Compound A is a mixture of Compound B and Compound C. […] In some embodiments, Compound A, Compound B, Compound C, or a pharmaceutically acceptable salt thereof, is amorphous. In some embodiments, Compound A, Compound B, Compound C, or a pharmaceutically acceptable salt thereof, is in crystal form.

[2] = test system: patients with hidradenitis suppurativa (HS); settings: Phase 2 and 3, week 4; cited from earlier work
[3] = test system: patients with atopic dermatitis (AD); settings: Phase 3, week 4; cited from earlier work

Cn1c(=O)n([C@H]2CCC(=O)NC2=O)c2cccc(C#CCOC3CCN(C[C@H]4CC[C@H](n5cc(NC(=O)c6cnn7ccc(N8C[C@H]9C[C@@H]8CO9)nc67)c(C(F)F)n5)CC4)CC3)c21 [Compound B, 5-((1R,4R)-2-oxa-5-azabicyclo[2.2.1]heptan-5-yl)-N-(3-(difluoromethyl)-1-((1r,4R)-4-((4-((3-(1-((S)-2,6-dioxopiperidin-3-yl)-3-methyl-2-oxo-2,3-dihydro-1H-benzo[d]imidazol-4-yl)prop-2-yn-1-yl)oxy)piperidin-1-yl)methyl)cyclohexyl)-1H-pyrazol-4-yl)pyrazolo[1,5-a]pyrimidine-3-carboxamide]
interconversion of diastereomers [1]: interconvert rapidly

Cn1c(=O)n([C@@H]2CCC(=O)NC2=O)c2cccc(C#CCOC3CCN(C[C@H]4CC[C@H](n5cc(NC(=O)c6cnn7ccc(N8C[C@H]9C[C@@H]8CO9)nc67)c(C(F)F)n5)CC4)CC3)c21 [Compound C, 5-((1R,4R)-2-oxa-5-azabicyclo[2.2.1]heptan-5-yl)-N-(3-(difluoromethyl)-1-((1r,4R)-4-((4-((3-(1-((R)-2,6-dioxopiperidin-3-yl)-3-methyl-2-oxo-2,3-dihydro-1H-benzo[d]imidazol-4-yl)prop-2-yn-1-yl)oxy)piperidin-1-yl)methyl)cyclohexyl)-1H-pyrazol-4-yl)pyrazolo[1,5-a]pyrimidine-3-carboxamide]
interconversion of diastereomers [1]: interconvert rapidly

Adalimumab
Responders: AN Count 0/1/2 [2]: 28-47%^2, 3
Responders: HiSCR50 [2]: 29-51%^3, 4
Responders: HiSCR75 [2]: 20%^4
Responders: Pain NRS30 [2]: 39-58%^2, 3, 5
ΔAN Count [2]: −31%^1

Dupilumab
Responders: Peak Pruritis NRS, Past Week/Past 24 Hours, first value [3]: 23%
Responders: Peak Pruritis NRS, Past Week/Past 24 Hours, second value [3]: 40%
ΔEASI [3]: −52%^1
ΔPeak Pruritis NRS: Past Week/Past 24 Hours [3]: −34%^1
